Data: ChEMBL document CHEMBL1130910, “Design of novel porphyrin-binding peptides based on antibody CDR” (Bioorg Med Chem Lett, 1998)

Assays:
[1] = Evaluated for binding constant with antigen meso-tetrakis (4-carboxyphenyl)porphyrin (TCPP) at 20% methanol content.
[2] = Evaluated for binding constant with antigen meso-tetrakis (4-carboxyphenyl)porphyrin (TCPP) at 35% methanol content.
[3] = Evaluated for binding constant with antigen meso-tetrakis (4-carboxyphenyl)porphyrin (TCPP) at 5% methanol content.
[4] = Evaluated for binding constant with antigen meso-tetrakis (4-carboxyphenyl)porphyrin (TCPP) at 0% methanol content.
[5] = Evaluated for binding constant with antigen meso-tetrakis (4-carboxyphenyl)porphyrin (TCPP) at 15% methanol content.
[6] = Evaluated for binding constant with antigen meso-tetrakis (4-carboxyphenyl)porphyrin (TCPP) at 30% methanol content.
[7] = Evaluated for binding constant with antigen meso-tetrakis (4-carboxyphenyl)porphyrin (TCPP) at 40% methanol content.

Ka [1]: 140000 M⁻¹
Ka [2]: 15000 M⁻¹
Ka [3]: 420000 M⁻¹
Ka [4]: 680000 M⁻¹
Ka [5]: 260000 M⁻¹
Ka [6]: 70000 M⁻¹
Ka [7]: 9700 M⁻¹
Structure (SMILES): CC[C@H](C)[C@H](NC(=O)[C@H](CCCN=C(N)N)NC(=O)CNC(=O)Cc1ccc2ccc3cccc4ccc1c2c34)C(=O)N[C@H]1CSSC[C@H](C(=O)N[C@H](C(=O)N[C@@H](CCCCN)C(=O)N[C@@H](Cc2ccc(O)cc2)C(N)=O)[C@H](C)O)NC(=O)CNC(=O)[C@H](CC(N)=O)NC(=O)[C@@H](C)NC(=O)[C@@H]2CCCN2C1=O
